Consider 23 compounds from US20230135729A1, “COMPOUND WITH ANTI-SPORE ACTIVITY AND PHARMACEUTICAL COMPOSITION THEREOF” (priority 2020, published 2023).

Format in all cases: cell-based
Assay [1] concerns spores of ATCC 630 strain. As to the kind of experiment: Inhibition of germination of C. difficile spores (MIC), strain ATCC 630. Conditions: Clostridioides difficile, ATCC630, 1 h; strain 630; sodium taurocholate as germinant, BHIS medium, 37° C., OD580 for 60 min; read-out: MIC (minimum concentration that completely inhibits spore germination). How it is done: (§1) According to a method disclosed in “The Journal of Infectious Diseases. 2013; 207: 1498-504”, spores of ATCC BBA1870, ATCC 43255 and ATCC 630 strains were obtained by culture and purification, and stored at 4° C.
(§2) Spore preparation: the C. difficile spores stored at 4° C. were heat-activated for 30 min at 65° C., centrifuged at 9,400 g for 2 min, and washed three times to remove any self-germinating spores.
(§3) Control drug: three cholic acid derivatives, a compound CamSA, a compound 20β (prepared by the method of “Journal of Medicinal Chemistry. 2017, 60 (8): 3451-3471”), and a compound 12a (prepared by the method of “Journal of Medicinal Chemistry. 2018, 61, 6759-6778”), were used as control drugs.
(§4) Compound preparation: the compound of the present disclosure, and the positive control drugs CamSA, 20β, and 12a were dissolved in DMSO, to prepare a stock solution with a concentration of 10 mM (prepared for immediate use).
(§5) The detection was conducted in a 96-well cell culture plate at a constant temperature of 37° C.; a final volume of each well of the 96-well plate was […] and a buffer was the BHIS medium; 150 μl of spores and drugs were added to the well in advance, and 50 μl of 4 mg/ml sodium taurocholate was added; OD580 was detected every 1 min immediately using a microplate reader, for continuously 60 min. A germination agent control group and a non-germination group were set up; after the detection, a final OD value of each well was compared with an initial value, and compared with the germination agent group to calculate a germination rate and an inhibition rate. A formula for the germination rate was:
(§6) Inhibition rate=100%−germination rate.

For assay [2], the system named is spores of ATCC BBA1870 strain. As to the kind of experiment: Inhibition of germination of C. difficile spores (MIC), strain ATCC BBA1870. Conditions: Clostridioides difficile, ATCCBBA1870STRAIN, 1 h; strain 1870; sodium taurocholate as germinant, BHIS medium, 37° C., OD580 for 60 min; read-out: MIC (minimum concentration that completely inhibits spore germination). How it is done:
as §1, §2, §3, §4, §5, §6

Assay [3] relates to spores of ATCC 43255 strain. As to the kind of experiment: Inhibition of germination of C. difficile spores (MIC), strain ATCC 43255. Conditions: Clostridioides difficile, ATCC43255, 1 h; strain 43255; sodium taurocholate as germinant, BHIS medium, 37° C., OD580 for 60 min; read-out: MIC (minimum concentration that completely inhibits spore germination). How it is done: as §1, §2, §3, §4, §5, §6

Values after ≈ are worked out from the molar mass of the structure shown.

For the compound `CO[C@@H]1CC[C@@]2(C)[C@H](CC(=O)[C@@H]3[C@@H]2CC[C@]2(C)[C@@H]([C@H](C)CC(=O)N[C@@H](c4ccc(Cl)s4)C(C)C)CC[C@@H]32)C1` [Compound I-168], the MIC in assay [1], in assay [2] and in assay [3] was 128 µM (≈ 72 µg/mL) in each case.

Take `CC(C)[C@@H](NC(=O)C[C@@H](C)[C@H]1CC[C@H]2[C@@H]3C(=O)C[C@@H]4CC(=O)CC[C@]4(C)[C@H]3CC[C@]12C)c1ccc(S(=O)(=O)O)s1` [Compound I-83]: the MIC in assay [1], in assay [2] and in assay [3] was 16 µM (≈ 9.47 µg/mL) each time.

On to `CCCCCCCC(=O)O[C@@H]1C[C@@H]2CC(=O)CC[C@]2(C)[C@H]2CC[C@]3(C)[C@@H]([C@H](C)CC(=O)N[C@@H](c4ccc(Br)s4)C(C)C)CC[C@H]3[C@H]12` [Compound I-186], for which the MIC in assay [1], in assay [2] and in assay [3] was 256 µM (≈ 184 µg/mL) throughout.

On to `CC[C@H](NC(=O)C[C@@H](C)[C@H]1CC[C@H]2[C@@H]3C[C@H](O)[C@@H]4CC(=O)CC[C@]4(C)[C@H]3CC[C@]12C)c1ccc(Cl)s1` [Compound I-129], for which the MIC came to 2 µM (≈ 1.07 µg/mL) in assay [1], 4 µM (≈ 2.14 µg/mL) in assay [2] and 2 µM (≈ 1.07 µg/mL) in assay [3].

Take `CC[C@H](NC(=O)C[C@@H](C)[C@H]1CC[C@H]2[C@@H]3C(=O)C[C@@H]4CC(=O)CC[C@]4(C)[C@H]3CC[C@]12C)c1cccs1` [Compound I-36]: the MIC turned out to be 4 µM (≈ 1.99 µg/mL) in assay [1], 8 µM (≈ 3.98 µg/mL) in assay [2] and 8 µM (≈ 3.98 µg/mL) in assay [3].

For `CC(C)[C@H](NC(=O)C[C@@H](C)[C@H]1CC[C@H]2[C@@H]3[C@H](O)C[C@@H]4CC(=O)CC[C@]4(C)[C@H]3CC[C@]12C)c1ccc(Br)s1` [Compound I-99], the MIC in assay [1] was 256 µM (≈ 152 µg/mL); in assay [2], more than 256 µM; in assay [3], 256 µM (≈ 152 µg/mL).

With `CC(C)C(NC(=O)C[C@@H](C)[C@H]1CC[C@H]2[C@@H]3C[C@H](O)[C@@H]4CC(=O)CC[C@]4(C)[C@H]3CC[C@]12C)c1ccc(Br)s1` (stereo partly drawn) [Compound I-130], the MIC in assay [1], in assay [2] and in assay [3] was 4 µM (≈ 2.37 µg/mL) throughout.

On to `CC[C@@H](NC(=O)C[C@@H](C)[C@H]1CC[C@H]2[C@@H]3C(=O)CC4=CC(=O)CC[C@]4(C)[C@H]3CC[C@]12C)c1ccc(Br)s1` [Compound I-151], for which the MIC in assay [1] turned out to be 0.5 µM (≈ 0.287 µg/mL); in assay [2] it was 0.5 µM (≈ 0.287 µg/mL); in assay [3], 1 µM (≈ 0.575 µg/mL).

Consider `CC[C@H](NC(=O)C[C@@H](C)[C@H]1CC[C@H]2[C@@H]3[C@H](O)C[C@@H]4CC(=O)CC[C@]4(C)[C@H]3CC[C@]12C)c1ccc(S(=O)(=O)O)s1` [Compound I-93], for which the MIC in assay [1], in assay [2] and in assay [3] was more than 256 µM in each case.

Take `CC(C)[C@@H](NC(=O)C[C@@H](C)[C@H]1CC[C@H]2[C@@H]3[C@H](O)C[C@@H]4CC(=O)CC[C@]4(C)[C@H]3CC[C@]12C)c1ccc(S(=O)(=O)O)s1` [Compound I-103]: the MIC in assay [1], in assay [2] and in assay [3] was 16 µM (≈ 9.5 µg/mL) each time.

With `CC(C)C(NC(=O)C[C@@H](C)[C@H]1CC[C@H]2[C@@H]3[C@H](O)[C@H](O)[C@@H]4C[C@H](O)CC[C@]4(C)[C@H]3CC[C@]12C)c1cccs1` (stereo partly drawn) [Compound I-119], the MIC in assay [1], in assay [2] and in assay [3] was 32 µM (≈ 17 µg/mL) each time.

Regarding `CC(NC(=O)C[C@@H](C)[C@H]1CC[C@H]2[C@@H]3C(=O)C[C@@H]4CC(=O)CC[C@]4(C)[C@H]3CC[C@]12C)c1ccc(S(=O)(=O)O)s1` (stereo partly drawn) [Compound I-34], the MIC in assay [1], in assay [2] and in assay [3] was 64 µM (≈ 36.1 µg/mL) in each case.

On to `CC(=O)O[C@@H]1C[C@@H]2CC(=O)CC[C@]2(C)[C@H]2CC[C@]3(C)[C@@H]([C@H](C)CC(=O)N[C@@H](c4ccc(Br)s4)C(C)C)CC[C@H]3[C@H]12` [Compound I-178], for which the results for the MIC in assay [1], in assay [2] and in assay [3] were 0.5 µM (≈ 0.317 µg/mL), 1 µM (≈ 0.635 µg/mL) and 0.5 µM (≈ 0.317 µg/mL), respectively.

With `CC(C)[C@@H](NC(=O)C[C@@H](C)[C@H]1CC[C@H]2[C@@H]3[C@H](O)C[C@@H]4CC(=O)CC[C@]4(C)[C@H]3CC[C@]12C)c1ccc(Br)s1` [Compound I-100], the MIC in assay [1], in assay [2] and in assay [3] was 0.25 µM (≈ 0.148 µg/mL) throughout.

As to `C[C@H](CC(=O)N[C@H](c1cccs1)C1CC1)[C@H]1CC[C@H]2[C@@H]3C(=O)C[C@@H]4CC(=O)CC[C@]4(C)[C@H]3CC[C@]12C` [Compound I-49], the MIC in assay [1], in assay [2] and in assay [3] was more than 256 µM in each case.

For the compound `CCC(NC(=O)C[C@@H](C)[C@H]1CC[C@H]2[C@@H]3C[C@H](O)[C@@H]4C[C@H](O)CC[C@]4(C)[C@H]3CC[C@]12C)c1ccc(Cl)s1` (stereo partly drawn) [Compound I-126], the MIC turned out to be 1 µM (≈ 0.536 µg/mL) in assay [1], 2 µM (≈ 1.07 µg/mL) in assay [2] and 2 µM (≈ 1.07 µg/mL) in assay [3].

As to `CC(C)[C@@H](NC(=O)C[C@@H](C)[C@H]1CC[C@H]2[C@@H]3[C@H](O)CC4=CC(=O)CC[C@]4(C)[C@H]3CC[C@]12C)c1ccc(Br)s1` [Compound I-156-2], the MIC worked out at 0.25 µM (≈ 0.148 µg/mL) in assay [1], 0.25 µM (≈ 0.148 µg/mL) in assay [2] and 0.5 µM (≈ 0.295 µg/mL) in assay [3].

Turning to `CCCCC(NC(=O)C[C@@H](C)[C@H]1CC[C@H]2[C@@H]3C(=O)C[C@@H]4CC(=O)CC[C@]4(C)[C@H]3CC[C@]12C)c1cccs1` (stereo partly drawn) [Compound I-42], the MIC in assay [1] turned out to be 1 µM (≈ 0.526 µg/mL); in assay [2], 2 µM (≈ 1.05 µg/mL); in assay [3], 1 µM (≈ 0.526 µg/mL).

On to `CCCCCCCCCCCCCC(NC(=O)C[C@@H](C)[C@H]1CC[C@H]2[C@@H]3C(=O)C[C@@H]4CC(=O)CC[C@]4(C)[C@H]3CC[C@]12C)c1cccs1` (stereo partly drawn) [Compound I-47], for which the MIC in assay [1], in assay [2] and in assay [3] was more than 256 µM throughout.

For `CCCCCC(NC(=O)C[C@@H](C)[C@H]1CC[C@H]2[C@@H]3C(=O)C[C@@H]4CC(=O)CC[C@]4(C)[C@H]3CC[C@]12C)c1cccs1` (stereo partly drawn) [Compound I-44], the values for the MIC in assay [1], in assay [2] and in assay [3] were more than 256 µM, 256 µM (≈ 138 µg/mL) and more than 256 µM, respectively.

Consider `Cc1ccsc1C(C)NC(=O)C[C@@H](C)[C@H]1CC[C@H]2[C@@H]3C(=O)C[C@@H]4CC(=O)CC[C@]4(C)[C@H]3CC[C@]12C` (stereo partly drawn) [Compound I-31], for which the MIC in assay [1], in assay [2] and in assay [3] was 8 µM (≈ 3.98 µg/mL) throughout.

`CC(C)C(NC(=O)C[C@@H](C)[C@H]1CC[C@H]2[C@@H]3[C@H](O)C[C@@H]4CC(=O)CC[C@]4(C)[C@H]3CC[C@]12C)c1ccc(Cl)s1` (stereo partly drawn) [Compound I-95]: the MIC in assay [1], in assay [2] and in assay [3] was 0.25 µM (≈ 0.137 µg/mL) throughout.

With `CC(C)[C@@H](NC(=O)C[C@@H](C)[C@H]1CC[C@H]2[C@@H]3C(=O)CC4=CC(=O)CC[C@]4(C)[C@H]3CC[C@]12C)c1ccc(Br)s1` [Compound I-152], the results for the MIC in assay [1], in assay [2] and in assay [3] were 0.5 µM (≈ 0.294 µg/mL), 1 µM (≈ 0.589 µg/mL) and 1 µM (≈ 0.589 µg/mL), respectively.
